Assay results from US10294272B2, “Peptides with antagonistic activities against natural CXCR4” (Pharis Biotec GmbH, priority 2013, dated 2019).
No end group written: not given here.

Tests used:
CXCR4 [1] = target: T1, CXCR4 (Homo sapiens, UniProt P61073); experiment: Competition with CXCL12 binding to CXCR4 (real-time fluorescence, eGFP-CXCR4 cells); conditions: read-out: dissociation constant (DC50), competition with CXCL12 binding to CXCR4
T1 construct: expressed in transfected cells
Procedure: Anti-human CXCR4 (clone 12G5, IgG2a) or anti-human CXCR7 (clone 9C4) monoclonal antibodies (mAbs) were purchased from R&D Systems (Minneapolis, Minn.). […] The human chemokines CXCL12 and CXCL12-TexasRed were synthesized as described (Valenzuela-Fernandez, et al. 2001). The human chemokine CXCL11 was purchased from Clinisciences SAS (France).
Experiments were performed using cells stably expressing eGFP-CXCR4, suspended in HEPES-bovine serum albumin buffer (10 mM HEPES, 137.5 mM NaCl, 1.25 mM MgCl2, 1.25 mM CaCl2, 6 mM KCl, 10 mM glucose, 0.4 mM NaH2PO4, 0.1% bovine serum albumin (w/v), pH 7.4) (typically at 10^6 cells/mL). Time-based recordings of the fluorescence emitted at 510 nm (excitation at 470 nm) were performed at 21° C. using a spectrofluorimeter and sampled every 0.3 s. Fluorescence binding measurements were initiated by adding at 30 s 100 nM of CXCL12-TR to the 1 mL cell suspension. For competition experiments, EGFP-CXCR4 expressing cells were preincubated for 10 min in the absence or presence of various concentrations of unlabelled drugs. Then, CXCL12-TR (100 nM) was added and fluorescence was recorded until equilibrium was reached (300 s). Data were analyzed using Kaleidagraph 3.08 software (Synergy Software, Reading, Pa., USA).

CXCR4 [2] = target: T2, CXCR4 (Mus musculus, UniProt P70658); experiment: Progenitor cell mobilization in mice; type: in vivo; conditions: single i.p. administration
T2 construct: from tissue; host or cells: live mice (C57Bl/6J for mobilization)
Procedure: C57B1/6J mice (Janvier, Le Genest St. Isle, F R) were housed in the conventional vivarium of the Goethe-University Medical Center, Frankfurt, with food and water ad libitum. Mice received i.p. injections of 200 μL water or normal saline containing 10 mg/mL the peptide of SEQ ID NO 16. Blood was drawn at the indicated times following injection from the check pouch after careful skin disinfection. After hypotonic lysis, leukocytes were incubated in duplicate in cytokine-replete commercially available semi-solid media (3434, Stem Cell Technologies, Vancouver, B C) under standard conditions. CFU—C were scored on day 7, as described (Bönig et al., 2006). CFU—C were normalized to the blood volume incubated. All animal studies were done with permission of the local IACUC, in agreement with AAALAC guidelines.

X4 tropic HIV-1 NL4-3 = conditions: blocking X4 tropic HIV-1 NL4-3 infection
Procedure: (§1) Antiviral screening was performed using the X4 HIV-1 NL4-3 molecular clone.
(§2) HIV-1, HIV-2 and SIV molecular clones differing in coreceptor tropism were generated by transient transfection of 293T cells with proviral DNA by the calcium phosphate method (CalPhos™ Mammalian Transfection Kit, Clon-tech). After overnight incubation, the transfection mixture was replaced by DMEM medium supplemented with 10% FCS, and virus stocks were harvested 48 hrs post-transfection. Subsequently, the culture supernatant was centrifuged for 5 min at 3000 rpm to remove cell debris. The resulting virus stock was quantified by p24 (HIV) or p27 (SIV) antigen ELISA. Virus stocks were either used immediately or stored in aliquots at −80° C.
(§3) TZM-bl reporter cells containing the LacZ reporter gene under the control of the HIV-1 promoter were seeded in 96-well F-bottom microtiter plates (Greiner Bio-One). On the following day, the cells were preincubated with various dilutions of the peptide of SEQ ID NO 16 or its derivatives for 1 hour and subsequently infected with HIV-1, HIV-2, and SIV. Infection rates were determined after 2 days using the one-step Tropix Gal-Screen Kit, as recommended by the manufacturer.

X4 HIV-1 strains = system: X4 HIV-1 strains
Procedure: as §1, §2, §3

SIV strains = experiment: TZM-bl infection assay, SIV; type: cell-based; conditions: effects relatively modest
Procedure: as §2, §3

CXCR4 [3] = target: T2, CXCR4; experiment: Asthma mouse model (OVA challenge); type: in vivo; conditions: mice, i.p., allergen challenge with OVA
Procedure: Mice were sensitized by intraperitoneal (i.p.) injection on days 0, 1 and 2 of 50 μg ovalbumin (OVA, Sigma-Aldrich, A5503) adsorbed on 2 mg aluminium hydroxide (Sigma-Aldrich, 23918-6) in saline. Mice were challenged by intranasal (i.n.) instillation of 10 μg OVA in 25 μl saline (12.5 μl/nostril) or saline alone for control mice on days 5, 6 and 7 under anesthesia (50 mg/kg ketamine and 3.3 mg/kg xylazine, i.p.). the peptide of SEQ ID NO 16 or ALB409-423 in saline were administered i.p. (16 μmol/kg) two hours before each OVA challenge. Bronchoalveolar lavage (BAL) and differential cell counts were performed 24 h after the last OVA challenge as previously reported in (Rebber et al., 2012).

T2 sequence (P70658 whole entry): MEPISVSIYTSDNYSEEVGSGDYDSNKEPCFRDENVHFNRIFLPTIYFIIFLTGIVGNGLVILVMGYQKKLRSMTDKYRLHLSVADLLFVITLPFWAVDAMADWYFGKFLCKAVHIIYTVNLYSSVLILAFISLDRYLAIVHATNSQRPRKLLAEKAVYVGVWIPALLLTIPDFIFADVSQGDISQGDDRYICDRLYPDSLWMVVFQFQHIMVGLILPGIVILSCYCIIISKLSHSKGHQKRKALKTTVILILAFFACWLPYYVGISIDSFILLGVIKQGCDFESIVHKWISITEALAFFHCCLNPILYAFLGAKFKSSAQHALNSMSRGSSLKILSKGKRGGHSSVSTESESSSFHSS
T1 sequence (P61073 whole entry): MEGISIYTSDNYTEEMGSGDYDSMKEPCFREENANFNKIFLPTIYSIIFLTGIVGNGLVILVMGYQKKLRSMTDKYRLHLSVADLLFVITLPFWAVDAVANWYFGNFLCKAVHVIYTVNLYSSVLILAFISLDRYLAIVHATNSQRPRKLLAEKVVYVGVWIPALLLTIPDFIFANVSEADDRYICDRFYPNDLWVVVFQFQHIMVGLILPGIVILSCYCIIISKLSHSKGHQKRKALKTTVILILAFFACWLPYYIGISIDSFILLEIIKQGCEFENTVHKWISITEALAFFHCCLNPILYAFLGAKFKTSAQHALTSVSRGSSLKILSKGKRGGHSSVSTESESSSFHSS

LVRYTKKVPQVSTPTL [Derivative 408-423, LVRYTKKVPQVSTPTL]
DC50 (CXCR4 [1]): 8 ± 3 µM | mobilization of progenitor cells and neutrophils into the periphery (CXCR4 [2]): significant mobilization | IC50 (X4 tropic HIV-1 NL4-3): 8.63 µM | mean 50% inhibitory concentration (IC50), infection by X4 HIV-1 strains (X4 HIV-1 strains; mean over X4 HIV-1 strains, chemically synthesized peptide): 15.8 µg/mL | HIV infection after pretreatment of viral target cells (not of virions) (X4 HIV-1 strains; pretreatment of target cells): effective reduction | IC50 (X4 HIV-1 strains; read-out: mean 50% inhibitory concentration (IC50), infection by X4 HIV-1 strains, corresponding to 15.8 μg/ml): 8.6 µM | infection by SIV strains (SIV strains): inhibits infection | CXCR4-dependent infiltration of neutrophils, lymphocytes and eosinophils into the airways (CXCR4 [3]): significantly reduced | infiltration of macrophages (CXCR4 [3]): markedly reduced
